Experimental data: patent US8987250B2 (Gilead Sciences, Inc., priority 2012, dated 2015)

test system: HIV-IIIb; assay: Test A: Antiviral Assay in MT4 Cells; assay type: cell-based; conditions: Human immunodeficiency virus 1, IIIB, MT4, 120 h, Table 1; MT-4 cells infected with HIV-IIIb, 5 days of incubation, CellTiter-Glo; read-out: EC50
Protocol: The antiviral properties of a compound of the invention may be determined using Test A described below.
Test A: Antiviral Assay in MT4 Cells
For the antiviral assay utilizing MT-4 cells, 0.4 μL of […] test concentration of 3-fold serially diluted compound in DMSO was added to 40 μL of cell growth medium (RPMI 1640, 10% FBS, 1% penicilline/Streptomycine, 1% L-Glutamine, 1% HEPES) in each well of 384-well assay plates (10 concentrations) in quadruplicate.
One mL aliquots of 2×10e6 MT-4 cells were pre-infected for 1 and 3 hours respectively, @ 37° C. with 25 uL (MT4) or of either cell growth medium (mock-infected) or a fresh 1:250 dilution of an HIV-IIIb concentrated ABI stock (0.004m.o.i. for MT4 cells). Infected and uninfected cells were diluted in cell growth medium and 35 uL of 2000 (for MT4) cells was added to each well of the assay plates.
Assay plates were then incubated in a 37° C. incubator. After 5 days of incubation, […] of 2× concentrated CellTiter-Glo™ Reagent (catalog #G7573, Promega Biosciences, Inc., Madison, Wis.) was added to each well of the assay plate. Cell lysis was carried out by incubating at room temperature for 2-3 min and then chemiluminescence was read using the Envision reader (PerkinElmer). […]

Structure (SMILES) | EC50 [nM]
Cc1cc2nc(N3CC(F)C3)sc2c(-c2ccc3c4c(ccnc24)CCO3)c1[C@H](OC(C)(C)C)C(=O)O (atropisomer, axis not shown) [Compound 56, (S)-2-tert-butoxy-2-((S)-7-(2,3-dihydropyrano[4,3,2-de]quinolin-7-yl)-2-(3-fluoroazetidin-1-yl)-5-methylbenzo[d]thiazol-6-yl)acetic acid] | 62.4
Cc1cc2nc(N3CC(C)C3)sc2c(-c2ccc3c4c(ccnc24)CCO3)c1[C@H](OC(C)(C)C)C(=O)O (atropisomer, axis not shown) [Compound 57, (S)-2-tert-butoxy-2-((S)-7-(2,3-dihydropyrano[4,3,2-de]quinolin-7-yl)-5-methyl-2-(3-methylazetidin-1-yl)benzo[d]thiazol-6-yl)acetic acid] | 147
Cc1cc2nc(N3CC(S(C)(=O)=O)C3)sc2c(-c2ccc3c4c(ccnc24)CCO3)c1[C@H](OC(C)(C)C)C(=O)O (atropisomer, axis not shown) [Compound 58, (S)-2-tert-butoxy-2-((S)-7-(2,3-dihydropyrano[4,3,2-de]quinolin-7-yl)-5-methyl-2-(3-(methylsulfonyl)azetidin-1-yl)benzo[d]thiazol-6-yl)acetic acid] | 3520
Cc1c([C@H](OC(C)(C)C)C(=O)O)c(-c2ccc3c4c(ccnc24)CCO3)c2sc(N3CCC3)nc2c1F (atropisomer, axis not shown) [Compound 76, (S)-2-((S)-2-(azetidin-1-yl)-7-(2,3-dihydropyrano[4,3,2-de]quinolin-7-yl)-4-fluoro-5-methylbenzo[d]thiazol-6-yl)-2-tert-butoxyacetic acid] | 26
CCC(C)(C)O[C@H](C(=O)O)c1c(C)cc2nc(N3CCC3)sc2c1-c1ccc2c3c(ccnc13)CCO2 (atropisomer, axis not shown) [Compound 89, (S)-2-((S)-2-(azetidin-1-yl)-7-(2,3-dihydropyrano[4,3,2-de]quinolin-7-yl)-5-methylbenzo[d]thiazol-6-yl)-2-(tert-pentyloxy)acetic acid] | 36.6
Cc1cc2nc(-c3cccc(-c4ccc5c(cnn5C)c4)c3)sc2c(-c2cc(F)c3c(c2C)C(=O)CCO3)c1[C@H](OC(C)(C)C)C(=O)O (atropisomer, axis not shown) [Compound 167] | 39
Cc1cc2nc(-c3cccc(-c4ccc5c(cnn5C)c4)c3)sc2c(-c2cc(F)c3c(c2C)CCCO3)c1[C@H](OC(C)(C)C)C(=O)O (atropisomer, axis not shown) [Compound 168] | 42
COc1cncc(-c2cc(-c3nc4cc(C)c([C@H](OC(C)(C)C)C(=O)O)c(-c5ccc(Cl)cc5)c4s3)ccn2)c1 [Compound 105, (S)-2-tert-butoxy-2-(7-(4-chlorophenyl)-2-(5′-methoxy-2,3′-bipyridin-4-yl)-5-methylbenzo[d]thiazol-6-yl)acetic acid] | 16
Cc1cc2nc(-c3cccc(-c4cncnc4)c3)sc2c(-c2ccc(Cl)cc2)c1[C@H](OC(C)(C)C)C(=O)O [Compound 106, (S)-2-tert-butoxy-2-(7-(4-chlorophenyl)-5-methyl-2-(3-(pyrimidin-5-yl)phenyl)benzo[d]thiazol-6-yl)acetic acid] | 103
Cc1cc2nc(-c3ccnc(-c4ccc5cnn(C)c5c4)c3)sc2c(-c2ccc(Cl)cc2)c1[C@H](OC(C)(C)C)C(=O)O [Compound 108, (S)-2-tert-butoxy-2-(7-(4-chlorophenyl)-5-methyl-2-(2-(1-methyl-1H-indazol-6-yl)pyridin-4-yl)benzo[d]thiazol-6-yl)acetic acid] | 33
Cc1cc2nc(-c3ccnc(-c4ccc5c(cnn5C)c4)n3)sc2c(-c2ccc(Cl)cc2)c1[C@H](OC(C)(C)C)C(=O)O [Compound 110, (S)-2-tert-butoxy-2-(7-(4-chlorophenyl)-5-methyl-2-(2-(1-methyl-1H-indazol-5-yl)pyrimidin-4-yl)benzo[d]thiazol-6-yl)acetic acid] | 14
Cc1cc2nc(-c3cnc4cnn(C)c4c3)sc2c(-c2ccc(Cl)cc2)c1[C@H](OC(C)(C)C)C(=O)O [Compound 111, (S)-2-tert-butoxy-2-(7-(4-chlorophenyl)-5-methyl-2-(1-methyl-1H-pyrazolo[4,3-b]pyridin-6-yl)benzo[d]thiazol-6-yl)acetic acid] | 8
Cc1cc2nc(-c3cnc4[nH]cc(C)c4c3)sc2c(-c2ccc(Cl)cc2)c1[C@H](OC(C)(C)C)C(=O)O [Compound 112] | 28
Cc1cc2nc(-c3ccc4c(cnn4C)c3)sc2c(-c2ccc(Cl)cc2)c1[C@H](OC(C)(C)C)C(=O)O [Compound 113b, (S)-2-tert-butoxy-2-(7-(4-chlorophenyl)-5-methyl-2-(1-methyl-1H-indazol-5-yl)benzo[d]thiazol-6-yl)acetic acid] | 18
Cc1cc2nc(-c3cncc(-c4ccc5c(cnn5C)c4)c3)sc2c(-c2ccc(Cl)cc2)c1[C@H](OC(C)(C)C)C(=O)O [Compound 114, (S)-2-tert-butoxy-2-(7-(4-chlorophenyl)-5-methyl-2-(5-(1-methyl-1H-indazol-5-yl)pyridin-3-yl)benzo[d]thiazol-6-yl)acetic acid] | 13
Cc1cc2nc(-c3ccnc(-c4ccc5[nH]ncc5c4)c3)sc2c(-c2ccc(Cl)cc2)c1[C@H](OC(C)(C)C)C(=O)O [Compound 115, (S)-2-(2-(2-(1H-indazol-5-yl)pyridin-4-yl)-7-(4-chlorophenyl)-5-methylbenzo[d]thiazol-6-yl)-2-tert-butoxyacetic acid] | 13
Cc1cc2nc(-c3cnc4c(cnn4C)c3)sc2c(-c2ccc(Cl)cc2)c1[C@H](OC(C)(C)C)C(=O)O [Compound 116, (S)-2-tert-butoxy-2-(7-(4-chlorophenyl)-5-methyl-2-(1-methyl-1H-pyrazolo[3,4-b]pyridin-5-yl)benzo[d]thiazol-6-yl)acetic acid] | 19

same assay, conditions: Human immunodeficiency virus 1, IIIB, MT4, 120 h, Table 2; MT-4 cells infected with HIV-IIIb, 5 days of incubation, CellTiter-Glo; read-out: EC50

Structure (SMILES) | EC50 [nM]
Cc1cc2nc(-c3ccnc(N4CCN(C(C)C)CC4C)n3)sc2c(-c2ccc(Cl)cc2)c1[C@H](OC(C)(C)C)C(=O)O (stereo in doubt) [Compound 467, (S)-2-tert-butoxy-2-(7-(4-chlorophenyl)-2-(2-((R)-4-isopropyl-2-methylpiperazin-1-yl)pyrimidin-4-yl)-5-methylbenzo[d]thiazol-6-yl)acetic acid] | 5

same assay, conditions: Table 1; MT-4 cells infected with HIV-IIIb, 5 days of incubation, CellTiter-Glo; read-out: EC50

Structure (SMILES) | EC50 [nM]
Cc1cc2nc(N3CCCC3)sc2c(-c2ccc3c4c(ccnc24)CCO3)c1[C@H](OC(C)(C)C)C(=O)O (atropisomer, axis not shown) [Compound 50, (S)-2-tert-butoxy-2-((S)-7-(2,3-dihydropyrano[4,3,2-de]quinolin-7-yl)-5-methyl-2-(pyrrolidin-1-yl)benzo[d]thiazol-6-yl)acetic acid] | 52.8
Cc1cc2nc(N3CCCC3)sc2c(-c2ccc3c4c(ccnc24)CCO3)c1[C@H](OC(C)(C)C)C(=O)O (atropisomer, axis not shown) [Compound 51, (S)-2-tert-butoxy-2-((R)-7-(2,3-dihydropyrano[4,3,2-de]quinolin-7-yl)-5-methyl-2-(pyrrolidin-1-yl)benzo[d]thiazol-6-yl)acetic acid] | 5250
Cc1cc2nc(N3CC(F)(F)C3)sc2c(-c2ccc3c4c(ccnc24)CCO3)c1[C@H](OC(C)(C)C)C(=O)O (atropisomer, axis not shown) [Compound 52, (S)-2-tert-butoxy-2-((S)-2-(3,3-difluoroazetidin-1-yl)-7-(2,3-dihydropyrano[4,3,2-de]quinolin-7-yl)-5-methylbenzo[d]thiazol-6-yl)acetic acid] | 53.4
Cc1cc2nc(N3CC(F)(F)C3)sc2c(-c2ccc3c4c(ccnc24)CCO3)c1[C@H](OC(C)(C)C)C(=O)O (atropisomer, axis not shown) [Compound 53, (S)-2-tert-butoxy-2-((R)-2-(3,3-difluoroazetidin-1-yl)-7-(2,3-dihydropyrano[4,3,2-de]quinolin-7-yl)-5-methylbenzo[d]thiazol-6-yl)acetic acid] | 37500
COC1CN(c2nc3cc(C)c([C@H](OC(C)(C)C)C(=O)O)c(-c4ccc5c6c(ccnc46)CCO5)c3s2)C1 (atropisomer, axis not shown) [Compound 54, (S)-2-tert-butoxy-2-((S)-7-(2,3-dihydropyrano[4,3,2-de]quinolin-7-yl)-2-(3-methoxyazetidin-1-yl)-5-methylbenzo[d]thiazol-6-yl)acetic acid] | 274
COC1CN(c2nc3cc(C)c([C@H](OC(C)(C)C)C(=O)O)c(-c4ccc5c6c(ccnc46)CCO5)c3s2)C1 (atropisomer, axis not shown) [Compound 55, (S)-2-tert-butoxy-2-((R)-7-(2,3-dihydropyrano[4,3,2-de]quinolin-7-yl)-2-(3-methoxyazetidin-1-yl)-5-methylbenzo[d]thiazol-6-yl)acetic acid] | 53000
Cc1cc2nc(-c3cccc(-c4ccc5c(cnn5C)c4)c3)sc2c(-c2ccc3c4c(ccnc24)CCO3)c1[C@H](OC(C)(C)C)C(=O)O (atropisomer, axis not shown) [Compound 164] | 483
